Results on 1 compound are retold here after US10005769B2, “2,3-dihydrobenzofuran-5YL compounds as DYRK kinase inhibitors” (4SC DISCOVERY GMBH, priority 2013, dated 2018).

Data set [1] concerns L3.6pl human metastatic pancreatic adenocarcinoma cells. As to the kind of experiment: Xenograft assay with L3.6pl cancer cells. The following applies: 100 mg/kg/day p.o. daily. It counts as in vivo, Foxn1nu/nu nude mice. The protocol:
The x-axis reflects the time [in days], while the y-axis reflects the tumor volume [in mm^3]. A xenograft assay with L3.6pl cancer cells was prepared as follows: 1×10^5 L3.6pl (Bruns et al., 1999) human metastatic pancreatic adenocarcinoma cells in 25% Matrigel (BD Biosciences, NJ, USA) were injected subcutaneously into the lower flanks of Foxn1nu/nu nude mice (Charles River Laboratories, USA). The compound of example 5 was administered p.o. daily with 100 mg/kg/day, dissolved in a mixture of 20% Glycofurol 75, 20% Oleic acid and 60% Olive oil; administration was started at the same day of injection of tumor cells. As a negative control, separate aminals were administered solvent vehicle without active compound. The tumor volume was measured with a caliper and calculated according to the formula [4/3×π×(length/2)×(width/2)×(height/2). Results are shown in FIG. 1, the p value was <0.01.

The test system of data set [2] is Hedgehog signaling pathway (Gli Reporter - NIH3T3 cell line). The data set is described as follows: Hedgehog Reporter Assay (Gli-Reporter, luciferase, mSHH stimulated). The following applies: Mus musculus; Gli Reporter NIH3T3 cells, 1 μg/ml mSHH, 24 h. It counts as cell-based, murine. The protocol: In order to investigate the potency of test compounds to inhibit the Hedgehog signaling pathway, a Gli-Reporter assay was performed. The “Gli Reporter-NIH3T3” cell line contains the firefly luciferase gene under the control of Gli responsive elements stably integrated into murine NIH3T3 cells (cells purchased from AMS Biotechnology ltd., 184 Milton Park, Abingdon OX14 4SE, U.K.). The luciferase expression correlates with activation of the hedgehog signaling pathway. This cell line is validated for its response to stimulation with murine Sonic Hedgehog and to treatment with inhibitors of the hedgehog signaling pathway. A multiplexed viability assay was used to discriminate inhibition on the pathway activity from cell toxicity. Growth Medium: DMEM (Dulbecco's Modified Eagle Medium); 10% Fetal Calf Serum; 1% Penicillin/Streptomycin; 500 μg/ml Geneticin (G418 Stock 50 mg/ml). Assay Medium: Opti-MEM® Reduced Serum Medium; 0.5% Calf Serum; 1% non-essential amino acids; 1 mM Na-pyruvate; 10 mM HEPES; 1% Penicillin/Streptomycin. 25,000 cells per well were seeded into a white 96 well plate in 100 μl growth medium and incubated over night at 37° C. and 5% CO2. After removing the supernatant the test compounds and controls were added in different concentrations in a final volume of 45 μl and incubated for 1 h at 37° C. and 5% CO2. For the stimulation of the Hedgehog pathway 5 μl of 10 μg/ml concentrated murine SHH (or mSHH; murine sonic hedgehog protein) was added to the cells. A final concentration of 1 μg/ml mSHH and 0.1% DMSO was reached per well. After incubation for 24 h at 37° C. the cells were investigated for viability and reporter activity. Viability: For the determination of the viability of the treated cells the CellTiter-FluorTM Kit from Promega comprising the fluorogenic, cell-permeant peptide substrate ([…]-aminofluorocoumarin GF-AFC was used. Roughly, only proteases of viable cells are able to cleave the GF-AFC. By this cleavage the fluorescent AFC is set free and can be detected in a fluorescence reader. For this assay 10 μl of GF-AFC substrate (CellTiter-FluorTM, Promega #G6082) was diluted in 2 ml assay buffer from the CellTiter-FluorTM Kit and 10 μl of this dilution was added per well to the cells and incubated for 30 min at 37° C. The fluorescence was measured with an excitation of 380-400 nm and an emission of 505 nm. Reporter activity: The firefly luciferase reporter activity was detected with the ONE-GloTM Luciferase Assay System from Promega. For this assay 50 μl ONE-Glo luciferase reagent (Promega #E6120, contains cell lysis buffer and luciferin) was added to each well and incubated at room temperature for 5 min. Luminescence was detected in a plate reader and served as a measure for reporter activity.

The next data set deals with DYRK1B (Homo sapiens (Human), UniProt Q9Y463). As to the kind of experiment: DYRK1B Kinase Assay (33P ATP, DYRKtide substrate, Reaction Biology Corp.). The following applies: 0.3 nM DYRK1B, 20 μM DYRKtide, 10 μM ATP, 25° C., 120 min. It counts as biochemical. A digest of the protocol:
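DYRK1B (0.3 nM) with 20 μM DYRKtide peptide in HEPES pH 7.5 buffer, 1% DMSO; compound preincubated 20 min before 10 μM ATP plus 33P-ATP. Reaction 120 min at 25 °C, filter-binding readout of radiolabel. IC50 from curve fit of dilution series.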

Sequence of DYRK1B (Q9Y463 whole entry): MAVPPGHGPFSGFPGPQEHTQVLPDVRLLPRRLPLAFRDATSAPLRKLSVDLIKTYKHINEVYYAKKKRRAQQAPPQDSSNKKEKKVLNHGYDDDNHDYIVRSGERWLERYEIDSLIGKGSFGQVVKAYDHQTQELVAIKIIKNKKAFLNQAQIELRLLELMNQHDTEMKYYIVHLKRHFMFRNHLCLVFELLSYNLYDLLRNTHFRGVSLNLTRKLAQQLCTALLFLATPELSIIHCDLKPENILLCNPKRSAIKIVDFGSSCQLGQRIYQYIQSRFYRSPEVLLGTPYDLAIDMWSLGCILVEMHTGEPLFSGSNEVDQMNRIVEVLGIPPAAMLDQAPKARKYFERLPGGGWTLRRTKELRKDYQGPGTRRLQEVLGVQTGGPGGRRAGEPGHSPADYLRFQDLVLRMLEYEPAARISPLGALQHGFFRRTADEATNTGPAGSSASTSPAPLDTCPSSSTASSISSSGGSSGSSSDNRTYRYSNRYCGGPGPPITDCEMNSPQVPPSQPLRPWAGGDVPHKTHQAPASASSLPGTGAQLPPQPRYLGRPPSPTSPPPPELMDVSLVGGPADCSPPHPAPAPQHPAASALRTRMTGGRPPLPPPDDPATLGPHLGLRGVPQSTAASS

One may read the IC50 as the point on the concentration scale where inhibition reaches its midpoint. Read a low IC50 as higher potency. In the case of `O=C(Nc1nc2cc(C(F)(F)F)ccc2[nH]1)c1csc(-c2ccc3c(c2)CCO3)n1` [Compound 5, 2-(2,3-Dihydrobenzofuran-5-yl)-N-(5-(trifluoromethyl)-1H-benzo[d]imidazol-2-yl)thiazole-4-carboxamide], in data set [1], the “animals' weight over the course of the experiment” value is listed as “essentially unchanged”. For the same compound, the figures for the IC50 (in data set [2]; at DYRK1B) were 1000 to 3000 nM and 90.9 nM, respectively.
